The data set in a line: Cytotoxicity in pre-osteoblasts (unknown origin) assessed as cell death upto 5 uM by CCK8 assay. Type of data set: toxicity, cell-based. The note with it: pre-osteoblast.

As to `CC[C@H](C)[C@H](NC(=O)[C@H](CCC(=O)O)NC(=O)[C@H](CO)NC(=O)[C@@H](NC(=O)[C@H](CO)NC(C)=O)C(C)C)C(=O)N[C@@H](C)C(=O)N[C@@H](CC(C)C)C(=O)N[C@@H](CCSC)C(=O)N[C@@H](Cc1cnc[nH]1)C(=O)N[C@@H](CC(N)=O)C(=O)N[C@@H](CC(C)C)C(=O)NCC(=O)N[C@@H](CCCCN)C(=O)N[C@@H](Cc1cnc[nH]1)C(=O)N[C@@H](CC(C)C)C(=O)N[C@@H](CC(N)=O)C(=O)N[C@@H](CO)C(=O)N[C@@H](CCSC)C(=O)N[C@@H](CCC(=O)O)C(=O)N[C@@H](CCCNC(=N)N)C(=O)N[C@H](C(=O)N[C@@H](CCC(=O)O)C(=O)N[C@@H](Cc1c[nH]c2ccccc12)C(=O)N[C@@H](CC(C)C)C(=O)N[C@@H](CCCNC(=N)N)C(=O)N[C@@H](CCCCN)C(=O)N[C@@H](CCCCN)C(=O)N[C@@H](CC(C)C)C(=O)N[C@@H](CCC(N)=O)C(=O)N[C@@H](CC(=O)O)C(=O)N[C@H](C(=O)N[C@@H](Cc1cnc[nH]1)C(=O)N[C@@H](CC(N)=O)C(=O)N[C@@H](Cc1ccccc1)C(N)=O)C(C)C)C(C)C`, the Activity result is on record as “Non-Toxic”.
As to `CC[C@H](C)[C@H](NC(=O)[C@H](CCC(=O)O)NC(=O)[C@H](CO)NC(=O)[C@@H](NC(=O)[C@H](CO)NC(C)=O)C(C)C)C(=O)N[C@@H](CCC(N)=O)C(=O)N[C@@H](CC(C)C)C(=O)N[C@@H](CCSC)C(=O)N[C@@H](Cc1cnc[nH]1)C(=O)N[C@@H](CC(N)=O)C(=O)N[C@@H](CC(C)C)C(=O)NCC(=O)N[C@@H](CCCCN)C(=O)N[C@@H](Cc1cnc[nH]1)C(=O)N[C@@H](CC(C)C)C(=O)N[C@@H](C)C(=O)N[C@@H](CO)C(=O)N[C@@H](CCSC)C(=O)N[C@@H](CCC(=O)O)C(=O)N[C@@H](CCCNC(=N)N)C(=O)N[C@H](C(=O)N[C@@H](CCC(=O)O)C(=O)N[C@@H](Cc1c[nH]c2ccccc12)C(=O)N[C@@H](CC(C)C)C(=O)N[C@@H](CCCNC(=N)N)C(=O)N[C@@H](CCCCN)C(=O)N[C@@H](CCCCN)C(=O)N[C@@H](CC(C)C)C(=O)N[C@@H](CCC(N)=O)C(=O)N[C@@H](CC(=O)O)C(=O)N[C@H](C(=O)N[C@@H](Cc1cnc[nH]1)C(=O)N[C@@H](CC(N)=O)C(=O)N[C@@H](Cc1ccccc1)C(N)=O)C(C)C)C(C)C`, the Activity entry is “Non-Toxic”.
With `CSCC[C@H](NC(=O)[C@H](CC(C)C)NC(=O)[C@H](CCC(N)=O)NC(=O)[C@H](C)NC(=O)[C@H](CCC(=O)O)NC(=O)[C@H](CO)NC(=O)[C@@H](NC(=O)[C@H](CO)NC(C)=O)C(C)C)C(=O)N[C@@H](Cc1cnc[nH]1)C(=O)N[C@@H](CC(N)=O)C(=O)N[C@@H](CC(C)C)C(=O)NCC(=O)N[C@@H](CCCCN)C(=O)N[C@@H](Cc1cnc[nH]1)C(=O)N[C@@H](CC(C)C)C(=O)N[C@@H](CC(N)=O)C(=O)N[C@@H](CO)C(=O)N[C@@H](CCSC)C(=O)N[C@@H](CCC(=O)O)C(=O)N[C@@H](CCCNC(=N)N)C(=O)N[C@H](C(=O)N[C@@H](CCC(=O)O)C(=O)N[C@@H](Cc1c[nH]c2ccccc12)C(=O)N[C@@H](CC(C)C)C(=O)N[C@@H](CCCNC(=N)N)C(=O)N[C@@H](CCCCN)C(=O)N[C@@H](CCCCN)C(=O)N[C@@H](CC(C)C)C(=O)N[C@@H](CCC(N)=O)C(=O)N[C@@H](CC(=O)O)C(=O)N[C@H](C(=O)N[C@@H](Cc1cnc[nH]1)C(=O)N[C@@H](CC(N)=O)C(=O)N[C@@H](Cc1ccccc1)C(N)=O)C(C)C)C(C)C`, the Activity entry was “Non-Toxic”.
Take `CC[C@H](C)[C@H](NC(=O)[C@H](CCC(=O)O)NC(=O)[C@H](CO)NC(=O)[C@@H](NC(=O)[C@H](CO)NC(C)=O)C(C)C)C(=O)N[C@@H](CCC(N)=O)C(=O)N[C@@H](CC(C)C)C(=O)N[C@@H](CCSC)C(=O)N[C@@H](Cc1cnc[nH]1)C(=O)N[C@@H](CC(N)=O)C(=O)N[C@@H](CC(C)C)C(=O)NCC(=O)N[C@@H](CCCCN)C(=O)N[C@@H](Cc1cnc[nH]1)C(=O)N[C@@H](C)C(=O)N[C@@H](CC(N)=O)C(=O)N[C@@H](CO)C(=O)N[C@@H](CCSC)C(=O)N[C@@H](CCC(=O)O)C(=O)N[C@@H](CCCNC(=N)N)C(=O)N[C@H](C(=O)N[C@@H](CCC(=O)O)C(=O)N[C@@H](Cc1c[nH]c2ccccc12)C(=O)N[C@@H](CC(C)C)C(=O)N[C@@H](CCCNC(=N)N)C(=O)N[C@@H](CCCCN)C(=O)N[C@@H](CCCCN)C(=O)N[C@@H](CC(C)C)C(=O)N[C@@H](CCC(N)=O)C(=O)N[C@@H](CC(=O)O)C(=O)N[C@H](C(=O)N[C@@H](Cc1cnc[nH]1)C(=O)N[C@@H](CC(N)=O)C(=O)N[C@@H](Cc1ccccc1)C(N)=O)C(C)C)C(C)C`: the Activity result is on record as “Non-Toxic”.
`CC[C@H](C)[C@H](NC(=O)[C@H](CCC(=O)O)NC(=O)[C@H](CO)NC(=O)[C@@H](NC(=O)[C@H](CO)NC(C)=O)C(C)C)C(=O)N[C@@H](CCC(N)=O)C(=O)N[C@@H](CC(C)C)C(=O)N[C@@H](CCSC)C(=O)N[C@@H](Cc1cnc[nH]1)C(=O)N[C@@H](CC(N)=O)C(=O)N[C@@H](CC(C)C)C(=O)NCC(=O)N[C@@H](CCCCN)C(=O)N[C@@H](Cc1cnc[nH]1)C(=O)N[C@@H](CC(C)C)C(=O)N[C@@H](CC(N)=O)C(=O)N[C@@H](CO)C(=O)N[C@@H](CCSC)C(=O)N[C@@H](CCC(=O)O)C(=O)N[C@@H](C)C(=O)N[C@H](C(=O)N[C@@H](CCC(=O)O)C(=O)N[C@@H](Cc1c[nH]c2ccccc12)C(=O)N[C@@H](CC(C)C)C(=O)N[C@@H](CCCNC(=N)N)C(=O)N[C@@H](CCCCN)C(=O)N[C@@H](CCCCN)C(=O)N[C@@H](CC(C)C)C(=O)N[C@@H](CCC(N)=O)C(=O)N[C@@H](CC(=O)O)C(=O)N[C@H](C(=O)N[C@@H](Cc1cnc[nH]1)C(=O)N[C@@H](CC(N)=O)C(=O)N[C@@H](Cc1ccccc1)C(N)=O)C(C)C)C(C)C`: the Activity entry was “Non-Toxic”.
The same measure for `CC[C@H](C)[C@H](NC(=O)[C@H](CCC(=O)O)NC(=O)[C@H](CO)NC(=O)[C@@H](NC(=O)[C@H](CO)NC(C)=O)C(C)C)C(=O)N[C@@H](CCC(N)=O)C(=O)N[C@@H](CC(C)C)C(=O)N[C@@H](CCSC)C(=O)N[C@@H](Cc1cnc[nH]1)C(=O)N[C@@H](CC(N)=O)C(=O)N[C@@H](CC(C)C)C(=O)NCC(=O)N[C@@H](CCCCN)C(=O)N[C@@H](Cc1cnc[nH]1)C(=O)N[C@@H](CC(C)C)C(=O)N[C@@H](CC(N)=O)C(=O)N[C@@H](CO)C(=O)N[C@@H](C)C(=O)N[C@@H](CCC(=O)O)C(=O)N[C@@H](CCCNC(=N)N)C(=O)N[C@H](C(=O)N[C@@H](CCC(=O)O)C(=O)N[C@@H](Cc1c[nH]c2ccccc12)C(=O)N[C@@H](CC(C)C)C(=O)N[C@@H](CCCNC(=N)N)C(=O)N[C@@H](CCCCN)C(=O)N[C@@H](CCCCN)C(=O)N[C@@H](CC(C)C)C(=O)N[C@@H](CCC(N)=O)C(=O)N[C@@H](CC(=O)O)C(=O)N[C@H](C(=O)N[C@@H](Cc1cnc[nH]1)C(=O)N[C@@H](CC(N)=O)C(=O)N[C@@H](Cc1ccccc1)C(N)=O)C(C)C)C(C)C`: “Non-Toxic”; for `CC[C@H](C)[C@H](NC(=O)[C@H](CCC(=O)O)NC(=O)[C@H](CO)NC(=O)[C@@H](NC(=O)[C@H](CO)NC(C)=O)C(C)C)C(=O)N[C@@H](CCC(N)=O)C(=O)N[C@@H](CC(C)C)C(=O)N[C@@H](CCSC)C(=O)N[C@@H](Cc1cnc[nH]1)C(=O)N[C@@H](CC(N)=O)C(=O)N[C@@H](CC(C)C)C(=O)NCC(=O)N[C@@H](CCCCN)C(=O)N[C@@H](Cc1cnc[nH]1)C(=O)N[C@@H](CC(C)C)C(=O)N[C@@H](CC(N)=O)C(=O)N[C@@H](CO)C(=O)N[C@@H](CCSC)C(=O)N[C@@H](CCC(=O)O)C(=O)N[C@@H](CCCNC(=N)N)C(=O)N[C@@H](C)C(=O)N[C@@H](CCC(=O)O)C(=O)N[C@@H](Cc1c[nH]c2ccccc12)C(=O)N[C@@H](CC(C)C)C(=O)N[C@@H](CCCNC(=N)N)C(=O)N[C@@H](CCCCN)C(=O)N[C@@H](CCCCN)C(=O)N[C@@H](CC(C)C)C(=O)N[C@@H](CCC(N)=O)C(=O)N[C@@H](CC(=O)O)C(=O)N[C@H](C(=O)N[C@@H](Cc1cnc[nH]1)C(=O)N[C@@H](CC(N)=O)C(=O)N[C@@H](Cc1ccccc1)C(N)=O)C(C)C`: “Non-Toxic”; for `CC[C@H](C)[C@H](NC(=O)[C@H](CCC(=O)O)NC(=O)[C@H](CO)NC(=O)[C@H](C)NC(=O)[C@H](CO)NC(C)=O)C(=O)N[C@@H](CCC(N)=O)C(=O)N[C@@H](CC(C)C)C(=O)N[C@@H](CCSC)C(=O)N[C@@H](Cc1cnc[nH]1)C(=O)N[C@@H](CC(N)=O)C(=O)N[C@@H](CC(C)C)C(=O)NCC(=O)N[C@@H](CCCCN)C(=O)N[C@@H](Cc1cnc[nH]1)C(=O)N[C@@H](CC(C)C)C(=O)N[C@@H](CC(N)=O)C(=O)N[C@@H](CO)C(=O)N[C@@H](CCSC)C(=O)N[C@@H](CCC(=O)O)C(=O)N[C@@H](CCCNC(=N)N)C(=O)N[C@H](C(=O)N[C@@H](CCC(=O)O)C(=O)N[C@@H](Cc1c[nH]c2ccccc12)C(=O)N[C@@H](CC(C)C)C(=O)N[C@@H](CCCNC(=N)N)C(=O)N[C@@H](CCCCN)C(=O)N[C@@H](CCCCN)C(=O)N[C@@H](CC(C)C)C(=O)N[C@@H](CCC(N)=O)C(=O)N[C@@H](CC(=O)O)C(=O)N[C@H](C(=O)N[C@@H](Cc1cnc[nH]1)C(=O)N[C@@H](CC(N)=O)C(=O)N[C@@H](Cc1ccccc1)C(N)=O)C(C)C)C(C)C`: “Non-Toxic”.
As to `CC[C@H](C)[C@H](NC(=O)[C@H](CCC(=O)O)NC(=O)[C@H](CO)NC(=O)[C@@H](NC(=O)[C@H](CO)NC(C)=O)C(C)C)C(=O)N[C@@H](CCC(N)=O)C(=O)N[C@@H](CC(C)C)C(=O)N[C@@H](CCSC)C(=O)N[C@@H](Cc1cnc[nH]1)C(=O)N[C@@H](CC(N)=O)C(=O)N[C@@H](CC(C)C)C(=O)NCC(=O)N[C@@H](CCCCN)C(=O)N[C@@H](Cc1cnc[nH]1)C(=O)N[C@@H](CC(C)C)C(=O)N[C@@H](CC(N)=O)C(=O)N[C@@H](CO)C(=O)N[C@@H](CCSC)C(=O)N[C@@H](CCC(=O)O)C(=O)N[C@@H](CCCNC(=N)N)C(=O)N[C@H](C(=O)N[C@@H](C)C(=O)N[C@@H](Cc1c[nH]c2ccccc12)C(=O)N[C@@H](CC(C)C)C(=O)N[C@@H](CCCNC(=N)N)C(=O)N[C@@H](CCCCN)C(=O)N[C@@H](CCCCN)C(=O)N[C@@H](CC(C)C)C(=O)N[C@@H](CCC(N)=O)C(=O)N[C@@H](CC(=O)O)C(=O)N[C@H](C(=O)N[C@@H](Cc1cnc[nH]1)C(=O)N[C@@H](CC(N)=O)C(=O)N[C@@H](Cc1ccccc1)C(N)=O)C(C)C)C(C)C`, the Activity entry is on record as “Non-Toxic”.

Source of the values: ChEMBL document CHEMBL5625277, “Systematical mutational analysis of teriparatide on anti-osteoporosis activity by alanine scanning” (Bioorg Med Chem Lett, 2024).
